Laboratory results from patent publication US5488149A, “Substituted amic acid derivatives” (Banyu Pharmaceutical Co., Ltd., priority 1993, dated 1996).

Each compound was assayed against T1, squalene synthase (Homo sapiens, UniProt P37268) (assay: Inhibitory activities against squalene synthase). Details: microsome fraction from human hepatoma (Hep G2) cells; 10 μM [3H]-farnesyl pyrophosphate; pH 7.4; 37° C., 20 minutes; read-out: 50% inhibitory concentration against squalene synthase activity (IC50).
T1 construct: A microsome fraction was prepared from human-hepatoma(Hep G2) cells; endogenous in cells; host or cells: Hep G2 (human hepatoma) cells, washed microsome fraction
T1 sequence (P37268 1-417): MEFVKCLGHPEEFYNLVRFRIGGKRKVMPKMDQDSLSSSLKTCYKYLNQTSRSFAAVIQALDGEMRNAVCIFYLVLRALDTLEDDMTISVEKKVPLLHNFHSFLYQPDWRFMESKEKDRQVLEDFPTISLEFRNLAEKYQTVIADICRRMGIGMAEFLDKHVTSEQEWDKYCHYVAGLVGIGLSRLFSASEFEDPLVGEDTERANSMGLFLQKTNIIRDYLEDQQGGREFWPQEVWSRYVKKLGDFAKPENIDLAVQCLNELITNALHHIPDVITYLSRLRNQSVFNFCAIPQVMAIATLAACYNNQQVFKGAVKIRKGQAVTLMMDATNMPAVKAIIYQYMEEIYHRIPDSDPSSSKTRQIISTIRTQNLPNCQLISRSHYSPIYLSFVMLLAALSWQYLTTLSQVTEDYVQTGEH
Assay type: biochemical
Method: Inhibitory activities against squalene synthase (1) Preparation of a microsome fraction A microsome fraction was prepared from human-hepatoma(Hep G2) cells by the method of Shechter et al disclosed in J. Biol. Chem., 267, 8628 (1992). Namely, Hep G2 cells were homogenized in the presence of a 0.3M sucrose-1 mM DTT-1 mM EDTA-10 mM Hepes buffer solution (pH 7.4) and various protease inhibitors, and subjected to centrifugal separation at 2000×g for 5 minutes and 10000×g for 15 minutes. The obtained supernatant was further subjected to centrifugal separation at 105000×g for 60 minutes, whereupon the precipitated residue was obtained. This precipitated residue was suspended in the above buffer solution containing various protease inhibitors, and the suspension was further subjected to centrifugal separation at 105000×g for 30 minutes to wash the precipitated residue. This washing operation was repeated three times. The finally obtained precipitated residue was taken as a microsome fraction, which was suspended in the above buffer solution containing no such various protease inhibitors, and the suspension was used for measuring the enzyme activities. (2) Method for measuring squalene synthase activities The enzymatic reaction of the squalene synthase was conducted in accordance with the method of Shechter et al disclosed in J. Biol. Chem., 267, 8628 (1992). […] Biochem., 203, 310 (1992). […] 50% inhibitory concentration against squalene synthase activity
`C[C@@H](NC(=O)CC(CC(=O)O)C(=O)O)[C@H](Cc1ccc(Cl)cc1)c1ccc(-c2ccccc2)c(F)c1` (relative stereo) [Example 35, N-{(1RS, 2RS)-3-(4-Chlorophenyl)-2-(2-fluoro-4-biphenylyl)-1-methylpropyl}carbamoylmethylsuccinic acid] showed an IC50 of 5.4 nM.
In the case of `C[C@H](NC(=O)C[C@@H](CC(=O)O)C(=O)O)[C@@H](Cc1ccc(Cl)c(Cl)c1)OC(=O)c1ccc2ccccc2c1` [Example 92, (2S)-2-[N-{(1S, 2R)-3-(3,4-dichlorophenyl)-1-methyl-2-(2-naphthoyloxy)propyl}carbamoylmethyl]succinic acid], the IC50 is reported as 0.5 nM.
With `C[C@@H](NC(=O)CC(CC(=O)O)C(=O)O)[C@@H](/C=C/c1ccc2ccccc2c1)Cc1ccc(Cl)c(Cl)c1` (relative stereo) [Example 102, N-((1RS, 2RS, 3E)-2-(3,4-dichlorobenzyl)-1-methyl-4-(2-naphthyl)-3-butenyl)carbamoylmethylsuccinic acid] the IC50 was 1.7 nM.
Compound `C[C@H](NC(=O)C[C@H](CC(=O)O)C(=O)O)[C@@H](Cc1ccc(Cl)cc1)c1ccc(-c2ccccc2)cc1` [Example 46 (2R-form), (2R)-2-[N-{(1S, 2S)-2-(4-biphenylyl)-3-(4-chlorophenyl)-1-methylpropyl} -carbamoylmethyl]succinic acid] has an IC50 of 3.2 nM.
With `C[C@@H](NC(=O)CC(CC(=O)O)C(=O)O)[C@H](Cc1ccc2ccccc2c1)c1ccc(-c2ccccc2)cc1` (relative stereo) [Example 32, N-{(1RS, 2RS)-2-(4-Biphenylyl)-1-methyl-3-(2-naphthyl)propyl}carbamoylmethylsuccinic acid] the IC50 was 4.7 nM.
`C[C@H](NC(=O)CC/C=C/C(=O)O)[C@@H](Cc1ccc(Cl)c(Cl)c1)c1ccc(-c2ccccc2)c(F)c1` [Example 70, (E)-5-[N-{(1S, 2S)-3-(3,4-Dichlorophenyl)-2-(2-fluoro-4-biphenylyl)-1-methylpropyl}carbamoyl]-2-pentenoic acid] gave an IC50 of 1.4 nM.
For `CC(CC(=O)O)CC(=O)N[C@H](C)[C@@H](/C=C/c1ccc2ccccc2c1)Cc1ccc(Cl)c(Cl)c1` (relative stereo) [Example 112, 4-{(1RS, 2RS, 3E)-2-(3,4-dichlorobenzyl)-1-1-methyl-4-(2-naphthyl)-3-butenylcarbamoyl}-3-methylbutanoic acid], the IC50 was 3.1 nM.
`C[C@@H]([C@@H](Cc1ccc(Cl)c(Cl)c1)c1ccc(-c2ccccc2)cc1)N(C)C(=O)C[C@@H](CC(=O)O)C(=O)O` [Example 49, (2S)-2-[N-{(1S, 2S)-2-(4-Biphenylyl)-3-(3, 4dichlorophenyl) -1-methylpropyl}-N-methylcarbamoylmethyl]succinic acid] was tested, and the IC50 was 3 nM.
